The values that follow are results of earlier work, collected in patent publication US7351424B2, “Enhanced purity trans-lutein-ester compositions and methods of making same” (Bio Lut S.A. de C.V., priority 2004, dated 2008).

The conditions of this data set: human, in vivo.

For the substance lutein esters, the bioavailability result is “even better than free lutein”.
